In publication PMC7505085 (ACS chemical biology, 2015):
Read-outs that look alike come from different tables or passages of the source.

Key:
T. b. brucei = assay: growth inhibitory activity against axenic T. b. brucei parasites; assay type: cell-based, Trypanosoma brucei; conditions: highest concentration tested 10 μM; for IC50: read-out: IC50 T. b. brucei
T98G cells = assay: cytotoxicity in mammalian cells; assay type: cell-based; conditions: read-out: IC50 mammalian cells
HeLa cells = assay: cytotoxicity in mammalian cells; assay type: cell-based; conditions: read-out: IC50 mammalian cells
[1] = HAT treatment; cited from earlier work

SMILES | antitrypanosomal activity (in words) (T. b. brucei) | IC50 (T. b. brucei) [µM] | IC50 (T98G cells) [µM] | IC50 (T. b. brucei; listed as B) [µM] | IC50 (HeLa cells) [µM] | drug-induced death rate [1] [%]
CC1=CC=CC[C@H](C)NC(=O)C=CC=CC=C[C@H](C)[C@@H](O)[C@H](O)[C@@H](O)C[C@@H](O)/C=C\C=CC(C)=C1 [Lobosamide A] | sub-micromolar | 0.8 | > 66 | – | – | –
CC1=CC=CC[C@H](C)NC(=O)C=CC=CC=C[C@H](C)[C@@H](O)[C@H](O)[C@@H](O)C[C@@H](O)/C=C/C=CC(C)=C1 [Lobosamide B] | – | 6.1 | > 66 | < 10 | – | –
CC1=CC=CC[C@H](C)NC(=O)C=CC=CC=C[C@H](C)[C@@H](O)C[C@@H](O)C[C@@H](O)/C=C\C=CC(C)=C1 [Lobosamide C] | inactive | > 10 | – | – | > 33 | –
CC1=CC=CC=CC[C@H](C)NC(=O)C=CC=CC=CC[C@@H](O)[C@H](O)[C@@H](O)C[C@@H](O)C=CC=C1 [Mirilactam A] | lack of activity | > 10 | – | – | – | –
CC1=CC=CC=CC[C@H](C)NC(=O)C=CC=CC=CC[C@@H](O)C[C@@H](O)C[C@@H](O)C=CC=C1 [Mirilactam B] | – | > 10 | – | – | > 33 | –
Nc1nc(N)nc(Nc2ccc([As]3SCC(CO)S3)cc2)n1 (centres unmarked) [melarsoprol] | – | – | – | – | – | 5
